Test [1] concerns GTM and HTM cells. The test can be described thus: Cell apoptosis induced by H2O2 (percentage of cells in Q2+Q4). It counts as cell-based, human. The conditions noted are these: FIG. 38. From the text:
FIG. 38A-38D are graphs showing cell apoptosis of control and D-Arg-2′,6′-Dmt-Lys-Phe-NH2(SS-31)-treated groups valued by percentage of cells in the Q2+Q4 quadrant.
The percentage of intracellular ROS production compared to GTM control in GTM H2O2, D-Arg-2′,6′-Dmt-Lys-Phe-NH2 10^−6M, D-Arg-2′,6′-Dmt-Lys-Phe-NH2 10^−7M, D-Arg-2′,6′-Dmt-Lys-Phe-NH2 10^−8M groups were 146.0±2.27%, 84.5±8.75%, 102.0±5.69%, 133.0±5.17% respectively (n=3); the HTM groups were 153.0±3.46%, 79±2.39%, 91.8±3.49%, 129.0±8.24% respectively (n=4). P<0.001 GTM and HTM H2O2 Group compared to control; *** means P<0.001 compared to GTM H2O2 group; ▴ ▴ ▴ Means P<0.001 compared to HTM H2O2 group; ▴ ▴ means P<0.01 compared to HTM H2O2 group.

Test [2] concerns GTM cells. Briefly: Mitochondrial membrane potential of GTM cells exposed to H2O2 (TMRM, confocal microscopy / flow cytometry). It counts as cell-based, human. From the text:
Methods to measure mitochondrial membrane potential using TMRM useful in the studies of the present invention have been described by Andrea Rasola and Massimo Geuna, A flow cytometry assay simultaneously detects independent apoptotic parameters, Cytometry 45:151-157, 2001; Mitoprobe™ JC-1 Kit for Flow Cytometry, Molecular Probes, Invitrogen, USA.
The mitochondrial membrane potential (Δψm) of HTM and GTM cells was investigated when those cells were exposed to hydrogen peroxide prior to administration of D-Arg-2′,6′-Dmt-Lys-Phe-NH2. First, the mitochondrial membrane potential was measured using confocal microscopy of cells labeled with tetramethylrhodamine methyl ester (TMRM, 500 nM×30 min) (FIG. 15). The mitochondrial membrane potential was also measured using flow cytometry (FIGS. 16-17) by labeling cells with the mitochondrion-selective probe tetramethylrhodamine methyl ester (TMRM, 500 nM×30 min).
The morphology of GTM cells was investigated when those cells were exposed to D-Arg-2′,6′-Dmt-Lys-Phe-NH2 prior to administration of hydrogen peroxide. […] That is, hydrogen peroxide mediated cell loss and rounding was diminished in cells exposed to D-Arg-2′,6′-Dmt-Lys-Phe-NH2 peptide. The mitochondrial membrane potential (Δψm) of HTM and GTM cells was also investigated when those cells were exposed to D-Arg-2′,6′-Dmt-Lys-Phe-NH2 prior to administration of hydrogen peroxide. The mitochondrial membrane potential was measured using confocal microscopy of cells labeled with tetramethylrhodamine methyl ester (TMRM, 500 nM×30 min) (FIG. 19-21). […] As such, D-Arg-2′,6′-Dmt-Lys-Phe-NH2 provides a protective effect against oxidative stress in GTM cells.

The test system of test [3] is mouse model of retina degeneration. The test can be described thus: Mouse model of retina degeneration (ONL thickness, PNA cone staining). It counts as in vivo. The conditions noted are these: compared to untreated mice. From the text: CNV is induced in the eye with laser burns. (see Example 6). Mouse models of retinal degeneration have been investigated for many years in the hope of understanding the causes of photoreceptor cell death. Naturally occurring mouse mutants that manifest degeneration of photoreceptors in the retina with preservation of all other retinal cell types have been found: retinal degeneration (formerly rd, identical with rodless retina, r, now Pde6b rd1); Purkinje cell degeneration (pcd); nervous (nr); retinal degeneration slow (rds, now Prph Rd2); retinal degeneration 3 (rd3); motor neuron degeneration (mnd); retinal degeneration 4 (Rd4); retinal degeneration 5 (rd5); vitiligo (vir, now Mitf mi-vit); retinal degeneration 6 (rd6); retinal degeneration 7 (rd7); neuronal ceroid lipofuscinosis (nclf); retinal degeneration 8 (rd8); retinal degeneration 9 (Rd9); retinal degeneration 10 (rd10); and cone photoreceptor function loss (cpfl1).
FIG. 28 is a series of micrographs showing the thickness of the retinal outer nuclear layer (ONL) in a mouse model of retina degeneration in control and D-Arg-2′,6′-Dmt-Lys-Phe-NH2-treated mice.

Test [4] relates to Trx2 in HRECs. The test can be described thus: Trx2 expression in high glucose-treated HRECs (real-time PCR, Western blot). It counts as cell-based, human. The conditions noted are these: 30 mM glucose co-treatment; 24 h and 48 h. As to the method: D-Arg-2′,6′-Dmt-Lys-Phe-NH2 increased the expression of Trx2 in the high glucose-treated HRECs. […] The mRNA expression level of Trx2 was measured by quantitative real-time PCR. Relative mRNA levels of Trx2 were normalized by 18S mRNA levels (* p<0.05 vs. the normal glucose medium group and the 30 mM high glucose treated group). Three independent samples were used for each time point.

For test [5], the system named is primary human retinal pigment epithelial (RPE) cells. The test can be described thus: Viability of primary RPE cells exposed to tBHP (MTT). It counts as cell-based. The following applies: preincubated 4 h with different concentrations, then tBHP 6 h. As to the method:
Next, the viability of primary RPE cells was tested in the presence of tBHP and various concentrations of D-Arg-2′,6′-Dmt-Lys-Phe-NH2. Cells were plated at 10,000 cells per well in a 96-well plate and cultured for 24 h, then starved for 24 h. After that, cells were exposed to increasing concentrations of tBHP (FIG. 23A), or preincubated for 4 h with different concentrations of D-Arg-2′,6′-Dmt-Lys-Phe-NH2, then stimulated with tBHP for 6 h (FIG. 23B). […] Intracellular ROS production in three groups of RPE cells was also examined using FACS analysis. […] Three different concentration of D-Arg-2′,6′-Dmt-Lys-Phe-NH2 groups were analyzed. The ratio of red to green in 500 μM tBHP for the 3 h group is 1.08, the ratio of red to green in 10 nM D-Arg-2′,6′-Dmt-Lys-Phe-NH2 for 4 h+500 tBHP for 3 h group is 1.25; the ratio of red to green in 100 nM D-Arg-2′,6′-Dmt-Lys-Phe-NH2 for 4 hr+500 μM tBHP for 3 h group is 1.4; and the ratio of red to green in 1 μM D-Arg-2′,6′-Dmt-Lys-Phe-NH2 for 4 h+500 μM tBHP for 3 h group is […]. […] FIG. 33A: Control group, R/G is 3.63±0.24; FIG. 33B: 500 μM tBHP for 3 h group, R/G is 1.08±0.11; FIG. 33C: 1 μM D-Arg-2′,6′-Dmt-Lys-Phe-NH2 for 4 h+500 μM tBHP for 3 h group, R/G is 2.38±0.18. FIG. 33D is a chart comparing the fluorescence ratio for the different groups. *P<0.01, C vs. B.

Regarding D-Arg-2′,6′-Dmt-Lys-Phe-NH2, the “amount of cell apoptosis induced by H2O2” value in test [1] was “reduced”. Further, in test [2] (GTM cells, co-treatment, 200 μM H2O2, confocal), the “decrease in mitochondrial potential (Δψm) elicited by H2O2” value was “dose-dependently inhibited the decrease”. Besides, the “loss of mitochondrial membrane potential caused by H2O2” value in test [2] (GTM cells, co-treatment, 400 μM H2O2, dose-dependent, confocal) is “reduced the loss”. Further, in test [2] (cells exposed to hydrogen peroxide prior to administration of peptide (Group A)), the mitochondrial membrane potential entry is “improves”. Besides, in test [2] (pre-treatment with peptide before hydrogen peroxide (Group B)), the mitochondrial membrane potential entry was “dose-dependently improves”. Further, in test [3], the “cone cell density (PNA-stained retinal flat mounts)” value is listed as “greater” and the “rows of cells in the retinal outer nuclear layer (ONL)” value is listed as “retained a greater number of rows of cells”. Besides, the “expression of Trx2” value in test [4] is “increased”. Besides, the “cell viability in response to tBHP” value in test [5] was “enhanced”.

(Values after patent US20180296630A1, “METHODS AND COMPOSITIONS FOR PREVENTING OR TREATING OPHTHALMIC CONDITIONS” (Stealth BioTherapeutics Corp, priority 2012, published 2018).)
